Biological target: NK-1 receptor (Meriones unguiculatus, UniProt Q5DUB1)
Assay: GR73632-induced hindlimb scratching behaviour in the Mongolian gerbil
Assay type: in vivo
Conditions: mean ± s.e.m.
Description: 5) Particularly the antipruritic effect of orvepitant maleate was determinated in GR73632-induced scratching behaviour in the Mongolian gerbil. According to this metholody the scratching behaviour was induced by GR73632 which is a specific agonist of the NK-1 receptor.
72 male Mongolian gerbils (58-78 g) after a minimum habituation period of 10 days prior to study commencement, were acclimatised to the procedure room in their home cages, with food and water available ad libitum. The day before the experiment was due to commence a 1 cm×1 cm squared area between the shoulder blades was shaved free of hair.
Habituation to the apparatus (custom made observation chambers; approximately 30×30 cm; 2 animals per observation) took place 30 minutes prior to induction of scratching behaviours using GR73632.
A 10 mg/kg stock solution of orvepitant maleate was made by dissolving 20 mg of orvepitant maleate Form 1 in 20 mls of vehicle (5% DMSO & 95% HPMC (0.5%)). This stock solution was serially diluted to prepare doses of 0.1, 0.3, 1.0, 3.0 or 10 mg/kg orvepitant maleate.
At T=−60 mins mongolian gerbils were dosed with orvepitant maleate (0.1, 0.3, 1.0, 3.0 or, 10 mg/kg p.o.). Gerbils were allocated to dosing groups based on a Latin square design. 30 Minutes later (T=−30 mins) gerbils were placed into the observation chamber for 30 minutes habituation. At T=0 Gerbils were then dosed with GR73632 (30 nmol/100 uL; i.d.) between the shoulder blades and their subsequent hindlimb scratching behaviour recorded using GeoVision surveillance software over a 30 minute period.
Playing back of the video served for counting scratching behaviour. […] Cumulative frequency and duration (secs) of scratching was scored in 5 min epochs. Treatment groups were randomised based on a Latin Square design. The experimenter was blinded to the treatment groups.
Repeated measures ANOVA followed by Planned comparison test using GraphPad Prism. (p<0.05 considered significant). Data were analysed by comparing treatment groups to control group at each time point.

Chain of NK-1 receptor (Q5DUB1 whole entry): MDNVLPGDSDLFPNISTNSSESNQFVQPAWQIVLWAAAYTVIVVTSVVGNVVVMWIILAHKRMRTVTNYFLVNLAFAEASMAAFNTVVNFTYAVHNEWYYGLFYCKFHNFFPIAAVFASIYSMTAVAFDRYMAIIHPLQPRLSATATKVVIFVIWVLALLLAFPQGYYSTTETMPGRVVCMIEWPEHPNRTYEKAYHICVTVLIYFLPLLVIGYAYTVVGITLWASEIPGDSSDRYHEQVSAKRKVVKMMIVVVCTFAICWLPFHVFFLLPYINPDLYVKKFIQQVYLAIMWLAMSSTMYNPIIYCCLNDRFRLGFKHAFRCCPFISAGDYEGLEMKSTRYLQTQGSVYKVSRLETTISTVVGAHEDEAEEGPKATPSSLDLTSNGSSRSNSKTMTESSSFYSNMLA

Cc1cc(F)ccc1[C@H]1C[C@@H](N2CCN3C(=O)CC[C@H]3C2)CCN1C(=O)N(C)[C@H](C)c1cc(C(F)(F)F)cc(C(F)(F)F)c1.O=C(O)/C=C\C(=O)O [orvepitant maleate, 2-(R)-(4-Fluoro-2-methyl-phenyl)-4-(S)-((8aS)-6-oxo-hexahydro-pyrrolo[1,2-a]-pyrazin-2-yl)-piperidine-1-carboxylic acid [1-(R)-(3,5-bis-trifluoromethyl-phenyl)-ethyl]-methylamide maleate]
Cumulative duration of hindlimb scratching (0.1 mg/kg p.o., 0-5 mins after GR73632 i.d., vehicle 5.35 ± 1.37): NS 2.76 ± 0.71 secs
Cumulative frequency of hindlimb scratching (0.1 mg/kg p.o., 0-5 mins after GR73632 i.d., vehicle 7.75 ± 2.18): NS4.08 ± 1.45
Cumulative duration of hindlimb scratching (0.1 mg/kg p.o., 5-10 mins after GR73632 i.d., vehicle 11.71 ± 1.93): **4.20 ± 0.85 secs
Cumulative frequency of hindlimb scratching (0.1 mg/kg p.o., 5-10 mins after GR73632 i.d., vehicle 14.41 ± 2.49): **5.83 ± 1.55
Cumulative duration of hindlimb scratching (0.1 mg/kg p.o., 10-15 mins after GR73632 i.d., vehicle 16.54 ± 2.58): ***5.96 ± 1.16 secs
Cumulative frequency of hindlimb scratching (0.1 mg/kg p.o., 10-15 mins after GR73632 i.d., vehicle 20.25 ± 2.97): ***7.91 ± 1.74
Cumulative duration of hindlimb scratching (0.1 mg/kg p.o., 15-20 mins after GR73632 i.d., vehicle 20.08 ± 2.83): ***7.86 ± 1.67 secs
Cumulative frequency of hindlimb scratching (0.1 mg/kg p.o., 15-20 mins after GR73632 i.d., vehicle 24.33 ± 3.22): ***9.66 ± 1.92
Cumulative duration of hindlimb scratching (0.1 mg/kg p.o., 20-25 mins after GR73632 i.d., vehicle 23.19 ± 2.80): ***8.99 ± 2.09 secs
Cumulative frequency of hindlimb scratching (0.1 mg/kg p.o., 20-25 mins after GR73632 i.d., vehicle 28.25 ± 3.26): ***10.91 ± 2.07
Cumulative duration of hindlimb scratching (0.1 mg/kg p.o., 25-30 mins after GR73632 i.d., vehicle 25.69 ± 3.026): ***9.67 ± 2.14 secs
Cumulative frequency of hindlimb scratching (0.1 mg/kg p.o., 25-30 mins after GR73632 i.d., vehicle 32.00 ± 3.60): ***11.58 ± 2.12
Cumulative duration of hindlimb scratching (0.3 mg/kg p.o., 0-5 mins after GR73632 i.d., vehicle 5.35 ± 1.37): NS 2.06 ± 0.62 secs
Cumulative frequency of hindlimb scratching (0.3 mg/kg p.o., 0-5 mins after GR73632 i.d., vehicle 7.75 ± 2.18): NS3.00 ± 0.88
Cumulative duration of hindlimb scratching (0.3 mg/kg p.o., 5-10 mins after GR73632 i.d., vehicle 11.71 ± 1.93): **3.50 ± 0.88 secs
Cumulative frequency of hindlimb scratching (0.3 mg/kg p.o., 5-10 mins after GR73632 i.d., vehicle 14.41 ± 2.49): ***4.91 ± 1.15
Cumulative duration of hindlimb scratching (0.3 mg/kg p.o., 10-15 mins after GR73632 i.d., vehicle 16.54 ± 2.58): ***5.86 ± 1.44 secs
Cumulative frequency of hindlimb scratching (0.3 mg/kg p.o., 10-15 mins after GR73632 i.d., vehicle 20.25 ± 2.97): ***7.50 ± 1.56
Cumulative duration of hindlimb scratching (0.3 mg/kg p.o., 15-20 mins after GR73632 i.d., vehicle 20.08 ± 2.83): ***7.09 ± 1.63 secs
Cumulative frequency of hindlimb scratching (0.3 mg/kg p.o., 15-20 mins after GR73632 i.d., vehicle 24.33 ± 3.22): ***8.66 ± 1.61
Cumulative duration of hindlimb scratching (0.3 mg/kg p.o., 20-25 mins after GR73632 i.d., vehicle 23.19 ± 2.80): ***8.58 ± 1.93 secs
Cumulative frequency of hindlimb scratching (0.3 mg/kg p.o., 20-25 mins after GR73632 i.d., vehicle 28.25 ± 3.26): ***10.00 ± 1.62
Cumulative duration of hindlimb scratching (0.3 mg/kg p.o., 25-30 mins after GR73632 i.d., vehicle 25.69 ± 3.026): ***10.27 ± 2.17 secs
Cumulative frequency of hindlimb scratching (0.3 mg/kg p.o., 25-30 mins after GR73632 i.d., vehicle 32.00 ± 3.60): ***11.75 ± 1.90
Cumulative duration of hindlimb scratching (1.0 mg/kg p.o., 0-5 mins after GR73632 i.d., vehicle 5.35 ± 1.37): NS 2.74 ± 1.06 secs
Cumulative frequency of hindlimb scratching (1.0 mg/kg p.o., 0-5 mins after GR73632 i.d., vehicle 7.75 ± 2.18): NS3.75 ± 1.30
Cumulative duration of hindlimb scratching (1.0 mg/kg p.o., 5-10 mins after GR73632 i.d., vehicle 11.71 ± 1.93): **4.51 ± 1.05 secs
Cumulative frequency of hindlimb scratching (1.0 mg/kg p.o., 5-10 mins after GR73632 i.d., vehicle 14.41 ± 2.49): **5.91 ± 1.25
Cumulative duration of hindlimb scratching (1.0 mg/kg p.o., 10-15 mins after GR73632 i.d., vehicle 16.54 ± 2.58): ***4.92 ± 1.13 secs
Cumulative frequency of hindlimb scratching (1.0 mg/kg p.o., 10-15 mins after GR73632 i.d., vehicle 20.25 ± 2.97): ***6.41 ± 1.29
Cumulative duration of hindlimb scratching (1.0 mg/kg p.o., 15-20 mins after GR73632 i.d., vehicle 20.08 ± 2.83): ***6.02 ± 1.28 secs
Cumulative frequency of hindlimb scratching (1.0 mg/kg p.o., 15-20 mins after GR73632 i.d., vehicle 24.33 ± 3.22): ***8.00 ± 1.39
Cumulative duration of hindlimb scratching (1.0 mg/kg p.o., 20-25 mins after GR73632 i.d., vehicle 23.19 ± 2.80): ***7.48 ± 1.55 secs
Cumulative frequency of hindlimb scratching (1.0 mg/kg p.o., 20-25 mins after GR73632 i.d., vehicle 28.25 ± 3.26): ***9.66 ± 1.71
Cumulative duration of hindlimb scratching (1.0 mg/kg p.o., 25-30 mins after GR73632 i.d., vehicle 25.69 ± 3.026): ***10.00 ± 2.17 secs
Cumulative frequency of hindlimb scratching (1.0 mg/kg p.o., 25-30 mins after GR73632 i.d., vehicle 32.00 ± 3.60): ***12.08 ± 2.25
Cumulative duration of hindlimb scratching (3.0 mg/kg p.o., 0-5 mins after GR73632 i.d., vehicle 5.35 ± 1.37): NS 0.96 ± 0.32 secs
Cumulative frequency of hindlimb scratching (3.0 mg/kg p.o., 0-5 mins after GR73632 i.d., vehicle 7.75 ± 2.18): NS1.58 ± 0.46
Cumulative duration of hindlimb scratching (3.0 mg/kg p.o., 5-10 mins after GR73632 i.d., vehicle 11.71 ± 1.93): ***1.30 ± 0.38 secs
Cumulative frequency of hindlimb scratching (3.0 mg/kg p.o., 5-10 mins after GR73632 i.d., vehicle 14.41 ± 2.49): ***2.16 ± 0.58
Cumulative duration of hindlimb scratching (3.0 mg/kg p.o., 10-15 mins after GR73632 i.d., vehicle 16.54 ± 2.58): ***1.79 ± 0.39 secs
Cumulative frequency of hindlimb scratching (3.0 mg/kg p.o., 10-15 mins after GR73632 i.d., vehicle 20.25 ± 2.97): ***2.83 ± 0.57
Cumulative duration of hindlimb scratching (3.0 mg/kg p.o., 15-20 mins after GR73632 i.d., vehicle 20.08 ± 2.83): ***2.415 ± 0.47 secs
Cumulative frequency of hindlimb scratching (3.0 mg/kg p.o., 15-20 mins after GR73632 i.d., vehicle 24.33 ± 3.22): ***3.66 ± 0.64
Cumulative duration of hindlimb scratching (3.0 mg/kg p.o., 20-25 mins after GR73632 i.d., vehicle 23.19 ± 2.80): ***2.59 ± 0.50 secs
Cumulative frequency of hindlimb scratching (3.0 mg/kg p.o., 20-25 mins after GR73632 i.d., vehicle 28.25 ± 3.26): ***4.00 ± 0.67
Cumulative duration of hindlimb scratching (3.0 mg/kg p.o., 25-30 mins after GR73632 i.d., vehicle 25.69 ± 3.026): ***3.09 ± 0.61 secs
Cumulative frequency of hindlimb scratching (3.0 mg/kg p.o., 25-30 mins after GR73632 i.d., vehicle 32.00 ± 3.60): ***4.58 ± 0.76
Cumulative duration of hindlimb scratching (10.0 mg/kg p.o., 0-5 mins after GR73632 i.d., vehicle 5.35 ± 1.37): NS 0.57 ± 0.29 secs
Cumulative frequency of hindlimb scratching (10.0 mg/kg p.o., 0-5 mins after GR73632 i.d., vehicle 7.75 ± 2.18): *0.91 ± 0.43
Cumulative duration of hindlimb scratching (10.0 mg/kg p.o., 5-10 mins after GR73632 i.d., vehicle 11.71 ± 1.93): ***1.13 ± 0.38 secs
Cumulative frequency of hindlimb scratching (10.0 mg/kg p.o., 5-10 mins after GR73632 i.d., vehicle 14.41 ± 2.49): ***1.66 ± 0.60
Cumulative duration of hindlimb scratching (10.0 mg/kg p.o., 10-15 mins after GR73632 i.d., vehicle 16.54 ± 2.58): ***2.38 ± 0.78 secs
Cumulative frequency of hindlimb scratching (10.0 mg/kg p.o., 10-15 mins after GR73632 i.d., vehicle 20.25 ± 2.97): ***2.58 ± 0.73
Cumulative duration of hindlimb scratching (10.0 mg/kg p.o., 15-20 mins after GR73632 i.d., vehicle 20.08 ± 2.83): ***3.22 ± 0.84 secs
Cumulative frequency of hindlimb scratching (10.0 mg/kg p.o., 15-20 mins after GR73632 i.d., vehicle 24.33 ± 3.22): ***3.58 ± 0.73
Cumulative duration of hindlimb scratching (10.0 mg/kg p.o., 20-25 mins after GR73632 i.d., vehicle 23.19 ± 2.80): ***4.36 ± 1.18 secs
Cumulative frequency of hindlimb scratching (10.0 mg/kg p.o., 20-25 mins after GR73632 i.d., vehicle 28.25 ± 3.26): ***5.00 ± 0.92
Cumulative duration of hindlimb scratching (10.0 mg/kg p.o., 25-30 mins after GR73632 i.d., vehicle 25.69 ± 3.026): ***5.24 ± 1.35 secs
Cumulative frequency of hindlimb scratching (10.0 mg/kg p.o., 25-30 mins after GR73632 i.d., vehicle 32.00 ± 3.60): ***5.91 ± 1.16
